Results published in patent publication US8415376B2, “Inhibitors of PI3 kinase” (Amgen Inc., priority 2008, dated 2013).

Experiments:
PI3Kα = target: T1, PI3Kα (Homo sapiens, UniProt P42336); experiment: In vitro PI3K AlphaScreen assay; assay type: biochemical; details: average if run more than once
T1 construct: Full length p110 subunits of PI3K α, β and δ, N-terminally labeled with polyHis tag; polyHis (N); made in house; host or cells: Sf9 insect cells (baculovirus)
Procedure: In Vitro PI3K Alphascreen® Assay
The PI3K AlphaScreen® assay (PerkinElmer, Waltham, Mass.) measures the activity of a panel of four phosphoinositide 3-kinases: PI3Kα, PI3Kβ, PI3Kγ, and PI3Kδ. Each of these enzymes phosphorylates the 3′-hydroxyl group on phosphatidylinositiol (4,5)-bisphosphate (PIP2) to produce phosphatidylinositol (3,4,5)-trisphosphate (PIP3). This phosphorylation activity is measured using a GST-tagged PIP3 binding protein (Echelon Biosciences, Salt Lake City, Utah), an anti-GST-tagged Acceptor bead, and streptavidin-Donor bead. […] In the absence of this interaction, proximity of the Donor and Acceptor beads is decreased, producing a loss of luminescent signal which is inversely proportional to PI3K activity.
The enzyme reaction buffer is made using sterile water (Baxter, Deerfield, Ill.) and 50 mM Tris HCl pH 7, 14 mM MgCl2, 2 mM sodium cholate, and 100 mM NaCl. 2 mM DTT is added fresh the day of the experiment. The AlphaScreen® reaction buffer is made using sterile water and 10 mM Tris HCl pH 7.5, 150 mM NaCl, 0.10% Tween 20, and 30 mM EDTA. 1 mM DTT is added fresh the day of the experiment.
The source plates for this assay are 384-well Greiner clear polypropylene plates containing test compounds at 5mM and diluted 1:2 over 22 points. […] Source plates are replicated into 384-well Optiplates (PerkinElmer, Waltham, Mass.), 0.5 μL/well, to make assay-ready plates.
The different PI3K isoforms are each diluted in enzyme reaction buffer to 2× working solutions. […] Two different 2× substrate solutions are made in enzyme reaction buffer. In one solution, PI(4,5)P2 (Echelon Biosciences, Salt Lake City, Utah) is diluted to 10 μM and ATP is diluted to 20 μM. This solution is used in the assays testing PI3Kα and PI3Kβ. In a second solution, PI(4,5)P2 is diluted to 10 μM and ATP is diluted to 8 μM. This solution used in the assays testing PI3Kγ and PI3Kδ.
The AlphaScreen® reaction solutions are made using beads from the anti-GST AlphaScreen® kit (PerkinElmer, Waltham, Mass.). Two solutions are made in Alphascreen reaction buffer to 4× working concentrations. In one solution, biotinylated-IP4 (Echelon Biosciences, Salt Lake City, Utah) is diluted to 40 nM and streptavadin-Donor Beads are diluted to 80 μg/mL. In the second solution, PIP3-binding protein (Echelon Biosciences, Salt Lake City, Utah) is diluted to 40 nM and anti-GST-Acceptor Beads are diluted to 80 μg/mL. 10 μL/well of enzyme reaction buffer is added to Column 24 of the assay ready plates in place of enzyme. This is done for plates in the PI3Kα, β, and 67 assays.
Using a 384-well dispensing Multidrop (Titertek, Huntsville, Ala.), 10 μL/well of 2× enzyme (PI3Kα, β, δ) is added to Columns 1-23 of the appropriate assay ready plates (for PI3Kγ 10 μL is added to Columns 1-24). 10 μL/well of the appropriate substrate solution (the solution with 20 μM ATP for PI3Kα and β assays, and the solution with 8 μM ATP for PI3Kγ and δ assays) is then added to Columns 1-24 of the plates. Plates are then incubated at room temperature for 20 minutes.
In the dark, 10 μL/well of the Donor Bead solution is added to Columns 1-24 of the plates to quench the enzyme reaction. The plates are incubated at room temperature for 30 minutes. Still in the dark, 10 μL/well of the Acceptor Bead solution is also added to Columns 1-24 of the plates. The plates are then incubated in the dark for 1.5 hours. The plates are read on an Envision Multilabel Plate Reader (PerkinElmer, Waltham, Mass.) with a 680 nm excitation filter and a 520-620 nm emission filter.

[1] = system: phosphorylation of Akt at Serine 473; experiment: pAkt AlphaScreen (U87 cell); assay type: cell-based; details: Homo sapiens, U-87 MG; U87 MG cells, pAkt Ser473; average
Procedure: pAkt Alphascreen (U87 Cell)
The pAkt AlphaScreen® assay (PerkinElmer, Waltham, Mass.) determines whether there is phosphorylation of Akt at Serine 473 by recruitment of a phosphospecific antibody. This assay was performed using U87 MG cells. The U87 growth media consists of MEM (Gibco, Carlsbad, Calif.) supplemented with 10% FBS (Gibco,), 1× Non-Essential Amino Acids (Gibco,) and 1× Penicillin/Streptomycin/Glutamine (Gibco). The cells were maintained weekly using 0.05% Trypsin (Gibco) and replated in 150 mm TC-Treated Culture Dishes (Corning, Corning, N.Y.).
The first day of the assay, the adherent cells were trypsinized, media was added to the loose cells and cells were mixed to a homogenous mixture. 0.5 ml of the homogenous mixture was counted on the Beckman Coulter® Vi-CELL™ XR (Fullerton, Calif.). 50 frames of cells were counted and the number of viable cells was determined. The cells were then diluted to 0.25 million cells per ml, and centrifuged at 200 rcf for 5 minutes. The media was removed and the cells were reconstituted in fresh media for plating. The cells were plated at 20 μl per well on the PerkinElmer® FlexDrop PLUS in Low Volume 384 Well White Tissue Culture Plates (Corning) with a final cell density of 5K cells per well. The plates were incubated overnight at 37° Celsius, 5% CO2.
On the second day, the compound plates were prepared, the cells were treated with compound and the pAkt reaction mix was added to the cell lysate. 384 well compound plates were prepared containing 1 μl of compound per well starting at 5 mM and diluted 1:2 across the row, resulting in a 22 well serial dilution. 39 μl of growth media was added to the compound plate in rows 1-22 using the PerkinElmer® FlexDrop PLUS resulting in a DMSO concentration of 2.5%. The cell plates and diluted compound plates were put onto the VELOCITY11™ VPREP™ 384 ST where the compound plate was mixed and 5 μl of serially diluted compound or controls was added to the cell plate. The final concentration of the compounds was 25 μM serially diluted to 11.9 pM in 0.5% DMSO. The cell plates were then incubated with compound for two hours at 37° Celsius, 5% CO2. After two hours, the media in the cell plates was aspirated using the BioTek® ELx405HT plate washer (Winooski, Vt.) removing the majority of media and compound without disturbing the adherent U87 cells. The following assay reagents are components of the SureFire® Akt (Ser 473) Phosphorylation 50K Point Kit (TGR BioSciences, Adelaide, Austalia) and an IgG Detection Kit (PerkinElmer, Waltham, Mass.). 5 μl of 1× Lysis Buffer was added to each well using the PerkinElmer® FlexDrop PLUS. The plates were then incubated at room temperature on a shaker for ten minutes. The AlphaScreen® reaction was prepared under low light conditions (subdued or green light) including p-Akt (Ser 473) Reaction Buffer, Dilution Buffer, Activation Buffer, Acceptor Beads and Donor Beads at a ratio of 40:20:10:1:1 respectively. The AlphaScreen® reaction was added to the cell lysate at 6 μl per well using the PerkinElmer® FlexDrop PLUS. The plates were placed in a humid environment to reduce edge effects and incubated overnight at room temperature with restricted air flow in the dark.
On the final day of the experiment, the plates were read on the PerkinElmer® EnVision™ 2103 Multilable Reader using the standard AlphaScreen® readout. The POC is calculated and the data is analyzed to report the IC50 IP for pAkt at Serine 473.
Activity data for the compounds tested in the PI3K cell based Akt assay is provided in Table 2 under the column heading U87

mTOR = target: T2, mTOR (Homo sapiens, UniProt P42345); experiment: In vitro mTOR assay (Lanthascreen); assay type: biochemical; details: average if run more than once
T2 construct: purchased Invitrogen (Carlsbad, Calif.)
T2 sequence (P42345 1360-2549 limits assumed): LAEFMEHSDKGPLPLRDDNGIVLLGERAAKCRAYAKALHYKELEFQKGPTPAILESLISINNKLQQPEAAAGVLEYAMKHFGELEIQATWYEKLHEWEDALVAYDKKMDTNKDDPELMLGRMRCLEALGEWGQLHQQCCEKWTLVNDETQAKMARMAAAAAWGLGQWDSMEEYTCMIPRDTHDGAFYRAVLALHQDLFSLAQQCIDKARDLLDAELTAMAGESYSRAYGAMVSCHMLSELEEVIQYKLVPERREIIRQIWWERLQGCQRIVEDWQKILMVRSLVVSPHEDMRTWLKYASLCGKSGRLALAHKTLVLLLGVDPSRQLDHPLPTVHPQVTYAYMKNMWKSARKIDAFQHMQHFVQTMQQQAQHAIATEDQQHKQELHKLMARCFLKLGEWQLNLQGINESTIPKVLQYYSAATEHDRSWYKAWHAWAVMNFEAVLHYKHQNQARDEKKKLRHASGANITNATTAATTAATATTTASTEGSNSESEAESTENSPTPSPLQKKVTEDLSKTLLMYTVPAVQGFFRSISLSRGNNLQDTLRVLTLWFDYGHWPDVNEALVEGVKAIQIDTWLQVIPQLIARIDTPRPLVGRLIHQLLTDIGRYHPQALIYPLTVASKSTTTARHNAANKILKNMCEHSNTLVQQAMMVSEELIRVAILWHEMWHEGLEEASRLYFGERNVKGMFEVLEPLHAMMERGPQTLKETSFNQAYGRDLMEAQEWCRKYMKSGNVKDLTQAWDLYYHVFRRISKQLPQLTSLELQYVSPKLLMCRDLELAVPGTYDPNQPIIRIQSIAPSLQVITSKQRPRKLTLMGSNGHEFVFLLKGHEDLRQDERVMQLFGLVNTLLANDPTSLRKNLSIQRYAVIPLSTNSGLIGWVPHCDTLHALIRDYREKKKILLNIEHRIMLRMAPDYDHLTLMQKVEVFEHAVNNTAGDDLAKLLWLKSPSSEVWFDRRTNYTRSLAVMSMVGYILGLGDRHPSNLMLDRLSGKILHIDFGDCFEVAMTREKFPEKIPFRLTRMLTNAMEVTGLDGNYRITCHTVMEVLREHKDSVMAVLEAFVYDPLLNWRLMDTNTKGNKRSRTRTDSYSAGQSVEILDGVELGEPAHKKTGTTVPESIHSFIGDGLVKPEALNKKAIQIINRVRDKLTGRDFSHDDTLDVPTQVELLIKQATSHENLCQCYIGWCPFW
Procedure, shortened: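 mTOR activity measured by TR-FRET as Thr46 phosphorylation of GFP-4E-BP1, detected with Tb-labelled anti-phospho-4E-BP1 [T46] antibody after EDTA stop. Final 50 ng/mL mTOR, 400 nM GFP-4E-BP1, 7 μM ATP in HEPES pH 7.5 with 10 mM MnCl2; 1 h, room temperature. 10-point 1:3 compound series.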

T1 sequence (P42336 whole entry): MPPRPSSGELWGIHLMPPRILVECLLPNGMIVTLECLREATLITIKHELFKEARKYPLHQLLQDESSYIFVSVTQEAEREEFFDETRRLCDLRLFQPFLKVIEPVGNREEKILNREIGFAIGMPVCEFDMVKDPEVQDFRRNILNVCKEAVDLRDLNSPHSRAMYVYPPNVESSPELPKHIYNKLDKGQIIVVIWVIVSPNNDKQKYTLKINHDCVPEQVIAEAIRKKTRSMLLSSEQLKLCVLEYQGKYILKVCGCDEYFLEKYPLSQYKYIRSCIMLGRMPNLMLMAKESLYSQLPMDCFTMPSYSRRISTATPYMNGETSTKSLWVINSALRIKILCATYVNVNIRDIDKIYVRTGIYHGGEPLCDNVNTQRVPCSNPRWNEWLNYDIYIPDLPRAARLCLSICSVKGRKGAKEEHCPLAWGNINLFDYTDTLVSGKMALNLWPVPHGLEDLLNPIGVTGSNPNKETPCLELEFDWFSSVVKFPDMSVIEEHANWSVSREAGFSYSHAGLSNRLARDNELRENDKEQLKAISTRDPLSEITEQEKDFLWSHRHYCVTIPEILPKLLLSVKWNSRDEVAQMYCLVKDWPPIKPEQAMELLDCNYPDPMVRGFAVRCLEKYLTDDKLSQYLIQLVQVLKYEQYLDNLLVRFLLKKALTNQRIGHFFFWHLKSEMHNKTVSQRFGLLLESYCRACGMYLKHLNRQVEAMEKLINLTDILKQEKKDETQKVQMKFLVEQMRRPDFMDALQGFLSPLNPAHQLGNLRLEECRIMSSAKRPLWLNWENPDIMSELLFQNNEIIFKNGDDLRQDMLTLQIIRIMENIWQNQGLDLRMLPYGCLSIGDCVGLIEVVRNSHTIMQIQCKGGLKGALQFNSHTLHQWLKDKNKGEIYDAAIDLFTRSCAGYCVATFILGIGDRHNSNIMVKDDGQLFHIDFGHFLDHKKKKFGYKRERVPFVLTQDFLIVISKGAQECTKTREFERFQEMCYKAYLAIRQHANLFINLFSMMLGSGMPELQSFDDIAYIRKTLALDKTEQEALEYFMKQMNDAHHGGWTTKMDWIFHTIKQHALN
T1 sequence (P27986 whole entry partner): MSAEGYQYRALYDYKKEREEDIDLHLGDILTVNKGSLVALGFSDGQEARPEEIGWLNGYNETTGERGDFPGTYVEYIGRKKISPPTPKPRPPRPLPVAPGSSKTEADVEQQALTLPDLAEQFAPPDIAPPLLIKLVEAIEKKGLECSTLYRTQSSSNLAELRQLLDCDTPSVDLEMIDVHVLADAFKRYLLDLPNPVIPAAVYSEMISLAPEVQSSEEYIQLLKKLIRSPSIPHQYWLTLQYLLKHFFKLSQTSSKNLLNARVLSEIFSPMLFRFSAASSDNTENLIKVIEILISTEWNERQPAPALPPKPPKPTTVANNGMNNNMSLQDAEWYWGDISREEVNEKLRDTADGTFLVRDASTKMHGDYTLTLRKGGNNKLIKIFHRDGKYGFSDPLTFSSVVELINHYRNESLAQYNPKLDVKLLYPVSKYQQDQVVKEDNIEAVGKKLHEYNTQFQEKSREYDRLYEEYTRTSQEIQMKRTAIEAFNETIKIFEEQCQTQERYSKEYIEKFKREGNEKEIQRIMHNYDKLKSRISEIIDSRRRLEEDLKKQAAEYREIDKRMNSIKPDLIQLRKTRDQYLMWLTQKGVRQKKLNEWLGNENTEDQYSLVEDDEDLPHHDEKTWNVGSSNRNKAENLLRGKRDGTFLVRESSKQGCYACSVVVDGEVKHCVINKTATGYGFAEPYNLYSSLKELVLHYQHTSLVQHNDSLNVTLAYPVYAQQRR

SMILES	Ki (PI3Kα)	IC50 [1]	IC50 (mTOR)
CN(C)c1ccc(-c2ccnc3ccc(-c4cnc(Cl)c(NS(=O)(=O)c5ccc(F)cc5)c4)cc23)cc1 [Example 102, N-(2-chloro-5-(4-(4-(dimethylamino)phenyl)-6-quinolinyl)-3-pyridinyl)-4-fluorobenzenesulfonamide]	0.0013 µM	0.0641 µM	0.0153 µM
C[C@@H]1CN(c2ccnc3ccc(-c4cnc(Cl)c(NS(C)(=O)=O)c4)cc23)C[C@H](C)O1 [Example 103, N-(2-chloro-5-(4-((2R,6S)-2,6-dimethyl-4-morpholinyl)-6-quinolinyl)-3-pyridinyl)methanesulfonamide]	0.0032 µM	0.0556 µM	0.0102 µM
Cc1cc(-c2ccnc3ccc(-c4cnc(Cl)c(NS(C)(=O)=O)c4)cc23)ccn1 [Example 105, N-(2-chloro-5-(4-(2-methyl-4-pyridinyl)-6-quinolinyl)-3-pyridinyl)methanesulfonamide]	0.0015 µM	0.0085 µM	0.0015 µM
COc1cc(-c2ccnc3ccc(-c4cnc(Cl)c(NS(C)(=O)=O)c4)cc23)ccn1 [Example 106, N-(2-chloro-5-(4-(2-methoxy-4-pyridinyl)-6-quinolinyl)-3-pyridinyl)methanesulfonamide]	0.0019 µM	0.0259 µM	0.0034 µM
CS(=O)(=O)Nc1cc(-c2ccc3nccc(C4=CCOCC4)c3c2)cnc1Cl [Example 107, N-(2-chloro-5-(4-(3,6-dihydro-2H-pyran-4-yl)-6-quinolinyl)-3-pyridinyl)methanesulfonamide]	0.0017 µM	0.0198 µM	0.004 µM
O=S(=O)(Nc1cc(-c2ccc3nccc(OC4CCSC4)c3c2)cnc1Cl)c1ccc(F)cc1 (stereo not drawn) [Example 108, N-(2-chloro-5-(4-(tetrahydro-3-thiophenyloxy)-6-quinolinyl)-3-pyridinyl)-4-fluorobenzenesulfonamide]	0.0023 µM	0.306 µM	0.0079 µM
C[C@H]1CN(c2ccnc3ccc(-c4cnc(Cl)c(NS(C)(=O)=O)c4)cc23)C[C@H](C)O1 [Example 109, N-(2-chloro-5-(4-((2S,6S)-2,6-dimethyl-4-morpholinyl)-6-quinolinyl)-3-pyridinyl)methanesulfonamide]	0.0032 µM	0.0214 µM	0.0137 µM
C[C@@H]1CN(c2ccnc3ccc(-c4cnc(Cl)c(NS(C)(=O)=O)c4)cc23)C[C@@H](C)O1 [Example 110, N-(2-chloro-5-(4-((2R,6R)-2,6-dimethyl-4-morpholinyl)-6-quinolinyl)-3-pyridinyl)methanesulfonamide]	0.0063 µM	0.0141 µM	0.0051 µM
CS(=O)(=O)Nc1cc(-c2ccc3nccc(-c4ccnc(C(F)(F)F)c4)c3c2)cnc1Cl [Example 111, N-(2-chloro-5-(4-(2-(trifluoromethyl)-4-pyridinyl)-6-quinolinyl)-3-pyridinyl)methanesulfonamide]	0.003 µM	0.0261 µM	0.0028 µM
CS(=O)(=O)Nc1cc(-c2ccc3nccc(-c4ccc(C(F)(F)F)nc4)c3c2)cnc1Cl [Example 112, N-(2-chloro-5-(4-(6-(trifluoromethyl)-3-pyridinyl)-6-quinolinyl)-3-pyridinyl)methanesulfonamide]	0.0021 µM	0.0091 µM	0.0021 µM
O=S1(=O)CCC(COc2ccnc3ccc(-c4cnc(Cl)c(NS(=O)(=O)c5ccc(F)cc5)c4)cc23)CC1 [Example 113, N-(2-Chloro-5-(4-((tetrahydro-2H-thiopyran-1,1-dioxide-4-yl)methoxy)quinolin-6-yl)pyridin-3-3-yl)-4-fluorobenzenesulfonamide]	0.0016 µM	0.0444 µM	0.0146 µM
CS(=O)(=O)Nc1cc(-c2ccc3nccc(-c4cccnc4)c3c2)cnc1Cl [Example 116, N-(2-Chloro-5-(4-(pyridin-3-yl)quinolin-6-yl)pyridin-3-yl)methanesulfonamide]	0.0013 µM	0.019 µM	0.0029 µM
